Here are results for 35 molecules from patent US8940516B2, “Method for the synthesis of chiral cyanohydrins via a hydroxynitrile lyase from brassicaceae” (Evocatal GmbH, priority 2006, dated 2015).

What all share (format): biochemical
The target in data set [1] is T1, AtHNL (Arabidopsis thaliana, UniProt Q9LFT6).
T1 construct: made in house; host or cells: E. coli BL21(DE3), plasmid pAtHNL (pET28a, NcoI/XhoI)
T1 sequence (Q9LFT6 1-258): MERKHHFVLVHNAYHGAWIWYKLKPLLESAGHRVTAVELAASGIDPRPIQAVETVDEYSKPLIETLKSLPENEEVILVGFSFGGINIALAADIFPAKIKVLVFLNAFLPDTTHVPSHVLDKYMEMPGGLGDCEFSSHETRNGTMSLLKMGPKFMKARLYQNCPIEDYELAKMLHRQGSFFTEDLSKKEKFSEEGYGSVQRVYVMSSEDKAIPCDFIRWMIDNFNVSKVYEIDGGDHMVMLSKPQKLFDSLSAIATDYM

Data set [2] addresses T1, AtHNL. The settings on record: pH 5.
Data set [3] is described as follows: Point mutations in SEQ ID NO: 1 (AtHNL variants).

Like-named read-outs stand apart in the source and are kept apart here. A value given as a limit tells only on which side of the number the result lay.

Regarding `O=Cc1cccs1` [compound 19], the “Transformation (%)” value on AtHNL [1] came out at 68%.

In the case of `O=Cc1ccccc1` [Benzaldehyde], the “Transformation (%)” value at AtHNL [1] (pH 4) is given as greater than 99.9%.

Consider `O=Cc1cccc(Oc2ccccc2)c1` [3-phenoxybenzaldehyde], for which the “ee (R) (%)” value on AtHNL [1] came out at 78%. In addition, the “Transformation (%)” value at AtHNL [1] (pH 4) is recorded as 73%.

On to `CCCCCC=O` [Hexanal], for which the “Transformation (%)” value at AtHNL [1] (pH 4) stood at 98%.

Take `CC(=O)CCc1ccccc1` [compound 29]: on AtHNL [1], the “Transformation (%)” value is reported as 1%.

`CCCCC(C)=O` [compound 24]: at AtHNL [1], the “Transformation (%)” value stood at 48% and the “ee (R) (%)” value was found to be 95%.

For the molecule `CCCCCCC=O` [Heptanal], the “ee (R) (%)” value at AtHNL [1] is greater than 80%. Moreover, the “Transformation (%)” value at AtHNL [1] (pH 4) is greater than 99.9%.

Regarding `CCCCCCCC=O` [Octanal], the “Transformation (%)” value at AtHNL [1] (pH 4) stood at 89%.

For the molecule `CCCCCCC(C)=O` [2-octanone], the “Transformation (%)” value on AtHNL [1] (pH 4) stood at 0%.

On to `CCCCCCCCC(C)=O` [compound 25], for which the “Transformation (%)” value at AtHNL [1] was 2%.

Consider `COc1ccc(C=O)cc1` [4-methoxybenzaldehyde], for which, at AtHNL [1] (pH 4), the “Transformation (%)” value worked out at 22.6%.

For the molecule `O=C1CCCCC1` [compound 26], the “Transformation (%)” value at AtHNL [1] is on record as 94%.

As for `CC(=O)CCc1ccccc1` [Benzyl acetone], the “ee (R) (%)” value at AtHNL [1] was 40%. Besides, the “Transformation (%)” value at AtHNL [1] (pH 4) is on record as 9%.

Consider `CC(=O)c1ccccc1` [compound 27], for which, on AtHNL [1], the “Transformation (%)” value is given as 7%.

For the molecule `CC(O)C#N` (stereo not shown) [Acetaldehyde cyanohydrin], the “Specify activity (U/mg), HCN-Test (see Ib above)” value at AtHNL [2] is on record as less than 0.05 U/mg.

As to `O=CCCc1ccccc1` [compound 18], at AtHNL [1], the “Transformation (%)” value is listed as 99% and the “ee (R) (%)” value was 68%.

Regarding `CCCCCC(C)=O` [2-heptanone], the “ee (R) (%)” value at AtHNL [1] came out at 9%. Moreover, at AtHNL [1] (pH 4), the “Transformation (%)” value is recorded as 9%.

As for `CCCC(C)=O` [2-pentanone], on AtHNL [1], the “ee (R) (%)” value is 0%. In addition, the “Transformation (%)” value on AtHNL [1] (pH 4) is recorded as greater than 95%.

For `CCC(O)C#N` (stereo not shown) [Propionaldehyde cyanohydrin], the “Specify activity (U/mg), HCN-Test (see Ib above)” value on AtHNL [2] is less than 0.05 U/mg.

For the molecule `C=CCc1ccccc1` [compound 17], on AtHNL [1], the “Transformation (%)” value is given as 97% and the “ee (R) (%)” value came to 96%.

In the case of `CCCCCC=O` [compound 20], at AtHNL [1], the “Transformation (%)” value is on record as 99% and the “ee (R) (%)” value is reported as 98%.

Take `CCCCC(C)=O` [2-hexanone]: on AtHNL [1], the “ee (R) (%)” value was found to be 0%.

With `O=Cc1ccc(Cl)cc1` [4-chlorobenzaldehyde], the “ee (R) (%)” value on AtHNL [1] came to 95%. The “Transformation (%)” value on AtHNL [1] (pH 4) stood at 98%.

`CC(=O)c1ccccc1F` [compound 28]: at AtHNL [1], the “Transformation (%)” value was 8% and the “ee (R) (%)” value is listed as 95%.

With `O=CCc1ccccc1` [Phenylacetaldehyde], the “ee (R) (%)” value at AtHNL [1] is reported as 71%. For the same molecule, at AtHNL [1] (pH 4), the “Transformation (%)” value amounted to 90%.

As for `CCC(C)=O` [2-butanone], the “ee (R) (%)” value on AtHNL [1] was found to be 0%. Besides, the “Transformation (%)” value at AtHNL [1] (pH 4) was greater than 95%.

Take `CCC/C=C/C=O` [compound 22]: the “Transformation (%)” value on AtHNL [1] turned out to be 53%.

For the molecule `CC(=O)CCC=C(C)C` [compound 23], the “Transformation (%)” value at AtHNL [1] came to 0%.

As to `CCCCCCCCCC=O` [compound 21], on AtHNL [1], the “Transformation (%)” value is given as 56% and the “ee (R) (%)” value was greater than 95%.

B1: S81A: AtHNL (SEQ ID NO: 1) with point mutation S81A, catalytic triad residue exchanged (protein, listed as Arabidopsis thaliana)
chain: MERKHHFVLVHNAYHGAWIWYKLKPLLESAGHRVTAVELAASGIDPRPIQAVETVDEYSKPLIETLKSLPENEEVILVGFAFGGINIALAADIFPAKIKVLVFLNAFLPDTTHVPSHVLDKYMEMPGGLGDCEFSSHETRNGTMSLLKMGPKFMKARLYQNCPIEDYELAKMLHRQGSFFTEDLSKKEKFSEEGYGSVQRVYVMSSEDKAIPCDFIRWMIDNFNVSKVYEIDGGDHMVMLSKPQKLFDSLSAIATDYM
For the molecule B1, the “activity of the polypeptide after exchange of catalytic triad residues” value in data set [3] was “no longer exhibited any activity”.

B2: D208N: AtHNL (SEQ ID NO: 1) with point mutation D208N, catalytic triad residue exchanged (protein, listed as Arabidopsis thaliana)
chain: MERKHHFVLVHNAYHGAWIWYKLKPLLESAGHRVTAVELAASGIDPRPIQAVETVDEYSKPLIETLKSLPENEEVILVGFSFGGINIALAADIFPAKIKVLVFLNAFLPDTTHVPSHVLDKYMEMPGGLGDCEFSSHETRNGTMSLLKMGPKFMKARLYQNCPIEDYELAKMLHRQGSFFTEDLSKKEKFSEEGYGSVQRVYVMSSENKAIPCDFIRWMIDNFNVSKVYEIDGGDHMVMLSKPQKLFDSLSAIATDYM
On to B2, for which the “activity of the polypeptide after exchange of catalytic triad residues” value in data set [3] was “no longer exhibited any activity”.

B3: N12T: AtHNL (SEQ ID NO: 1) with asparagine 12 exchanged for threonine, preferably as double mutation with Y14C (protein, listed as Arabidopsis thaliana)
chain: MERKHHFVLVHTAYHGAWIWYKLKPLLESAGHRVTAVELAASGIDPRPIQAVETVDEYSKPLIETLKSLPENEEVILVGFSFGGINIALAADIFPAKIKVLVFLNAFLPDTTHVPSHVLDKYMEMPGGLGDCEFSSHETRNGTMSLLKMGPKFMKARLYQNCPIEDYELAKMLHRQGSFFTEDLSKKEKFSEEGYGSVQRVYVMSSEDKAIPCDFIRWMIDNFNVSKVYEIDGGDHMVMLSKPQKLFDSLSAIATDYM
Turning to B3, the “effect of the point mutation on substrate spectrum / enantioselectivity” value in data set [3] is “broadening of substrate spectrum to ketones”.

B4: L129W: AtHNL (SEQ ID NO: 1) with leucine 129 exchanged for tryptophan (protein, listed as Arabidopsis thaliana)
chain: MERKHHFVLVHNAYHGAWIWYKLKPLLESAGHRVTAVELAASGIDPRPIQAVETVDEYSKPLIETLKSLPENEEVILVGFSFGGINIALAADIFPAKIKVLVFLNAFLPDTTHVPSHVLDKYMEMPGGWGDCEFSSHETRNGTMSLLKMGPKFMKARLYQNCPIEDYELAKMLHRQGSFFTEDLSKKEKFSEEGYGSVQRVYVMSSEDKAIPCDFIRWMIDNFNVSKVYEIDGGDHMVMLSKPQKLFDSLSAIATDYM
On to B4, for which the “effect of the point mutation on substrate spectrum / enantioselectivity” value in data set [3] is “reversal of enantioselectivity”.

B5: H236F: AtHNL (SEQ ID NO: 1) with point mutation H236F, catalytic triad residue exchanged (protein, listed as Arabidopsis thaliana)
chain: MERKHHFVLVHNAYHGAWIWYKLKPLLESAGHRVTAVELAASGIDPRPIQAVETVDEYSKPLIETLKSLPENEEVILVGFSFGGINIALAADIFPAKIKVLVFLNAFLPDTTHVPSHVLDKYMEMPGGLGDCEFSSHETRNGTMSLLKMGPKFMKARLYQNCPIEDYELAKMLHRQGSFFTEDLSKKEKFSEEGYGSVQRVYVMSSEDKAIPCDFIRWMIDNFNVSKVYEIDGGDFMVMLSKPQKLFDSLSAIATDYM
Turning to B5, the “activity of the polypeptide after exchange of catalytic triad residues” value in data set [3] is given as “no longer exhibited any activity”.

B6: Y14C: AtHNL (SEQ ID NO: 1) with tyrosine 14 exchanged for cysteine (protein, listed as Arabidopsis thaliana)
chain: MERKHHFVLVHNACHGAWIWYKLKPLLESAGHRVTAVELAASGIDPRPIQAVETVDEYSKPLIETLKSLPENEEVILVGFSFGGINIALAADIFPAKIKVLVFLNAFLPDTTHVPSHVLDKYMEMPGGLGDCEFSSHETRNGTMSLLKMGPKFMKARLYQNCPIEDYELAKMLHRQGSFFTEDLSKKEKFSEEGYGSVQRVYVMSSEDKAIPCDFIRWMIDNFNVSKVYEIDGGDHMVMLSKPQKLFDSLSAIATDYM
For B6, in data set [3], the “effect of the point mutation on substrate spectrum / enantioselectivity” value is given as “reversal of enantioselectivity”.
